Target: T1, human alpha 7-wt nAChR (Homo sapiens, UniProt P36544)
T1 construct: expressed in transfected cells
Assay: Ca2+ flux imaging (FDSS) (Protocol B)
Format: cell-based
Settings: for Emax: efficacy of 100 μM choline defined as 100% in the absence of a PAM, read-out: a7-PAM-G_[33]_Eff_Curve_FI % Efficacy; for EC50: potentiation of 100 μM choline, compounds 0.01 μM to 30 μM, read-out: a7-PAM-G_[33]_pEC50 pEC50 (converted)
Method: Ca^2+ Flux Imaging (FDSS) (Protocol B)
• Hanks buffered saline solution (HBSS, Invitrogen, Belgium), supplemented with 10 mM HEPES (Invitrogen, Belgium), CaCl2 to a final concentration of 5 mM, 0.1% Bovine serum albumin (Sigma-Aldrich NV, Belgium). b) Calcium-Sensitive Dye—Fluo-4AM • Fluo-4AM (Molecular Probes, USA) was dissolved in DMSO containing 10% Pluronic acid (Molecular Probes, USA) to give a stock solution which was diluted in assay buffer supplemented with 5 mM probenicid (Sigma, Aldrich NV, Belgium) to give a final concentration of 2 μM. c) 384-Well Plates • Black-sided, transparent bottomed 384 well plates coated with poly-D-lysine, PDL pre-coated (Corning, Incorporated, USA) d) Calcium Flux Measurement • A Functional drug screening system (FDSS, Hamamatsu) was used to measure intracellular free-calcium flux signals. Method
Monolayers of human alpha 7-wt nAChR-expressing cells were grown in black-sided, transparent bottomed 384 well plates coated with PDL for 24 hours prior to loading with a fluorescent calcium indicator, fluo-4AM for up to 120 minutes.
PAM activity was detected in real time by applying the compounds to be tested to the loaded cells along with an alpha 7 nicotinic receptor agonist during constant monitoring of cellular fluorescence in a FDSS. Compounds giving peak fluorescent responses greater than the response due to agonist alone, were considered to be alpha 7 nAChR PAMs. The alpha 7 nicotinic receptor agonist was choline, applied at a sub-maximal concentration of 100 μM. In a further setting of the present invention the compounds were applied prior to the alpha 7 nicotinic receptor agonist, in a particular 10 minutes prior to the agonist.
A control response to choline was calculated on each plate from the difference in peak in fluorescence in wells receiving either choline or assay buffer alone. Compounds of the present invention were tested at a concentration range from 0.01 μM to 30 μM. Compounds were considered to have an interesting activity when they potentiated the choline signal at least with 200% when tested at a concentration of 30 μM (the efficacy of 100 μM choline was defined as 100% in the absence of a PAM). An EC50 (or pEC50) was determined as a concentration relating to half the maximal effect, when a clear sigmoidal curve with top plateau was obtained.

T1 sequence (P36544 23-502): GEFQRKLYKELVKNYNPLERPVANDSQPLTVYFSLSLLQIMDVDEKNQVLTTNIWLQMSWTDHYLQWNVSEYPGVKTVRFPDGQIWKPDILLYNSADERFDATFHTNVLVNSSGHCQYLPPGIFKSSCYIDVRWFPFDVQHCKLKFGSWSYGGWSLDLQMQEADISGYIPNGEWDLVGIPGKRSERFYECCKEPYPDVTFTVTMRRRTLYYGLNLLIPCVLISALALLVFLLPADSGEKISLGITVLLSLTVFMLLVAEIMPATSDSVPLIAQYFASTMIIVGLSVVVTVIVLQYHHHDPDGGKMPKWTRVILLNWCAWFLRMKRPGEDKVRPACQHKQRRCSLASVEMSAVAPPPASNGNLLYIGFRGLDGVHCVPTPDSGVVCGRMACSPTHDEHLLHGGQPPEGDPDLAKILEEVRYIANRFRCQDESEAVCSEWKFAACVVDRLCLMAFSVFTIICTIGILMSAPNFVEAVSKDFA

Cc1cc(-c2sc(N3C[C@@H](C)O[C@@H](C)C3)nc2CNC(=O)[C@H]2CCOC2)cc(C)n1 [Compound 28, (3S)-N-[[2-[(2R,6S)-2,6-dimethyl-4-morpholinyl]-5-(2,6-dimethyl-4-pyridinyl)-4-thiazolyl]methyl]tetrahydro-3-furancarboxamide]
Emax: 409% | EC50: 447 nM

Cc1cc(-c2sc(N3C[C@@H](C)O[C@@H](C)C3)nc2CNC(=O)c2sc(C)nc2C)cc(C)n1 [Compound 29, N-[[2-[(2R,6S)-2,6-dimethyl-4-morpholinyl]-5-(2,6-dimethyl-4-pyridinyl)-4-thiazolyl]methyl]-2,4-dimethyl-5-thiazolecarboxamide]
Emax: 593%

COc1ccc(C(=O)NCc2nc(N3C[C@@H](C)O[C@@H](C)C3)sc2-c2cc(C)nc(C)c2)cc1 [Compound 30, N-[[2-[(2R,6S)-2,6-dimethyl-4-morpholinyl]-5-(2,6-dimethyl-4-pyridinyl)-4-thiazolyl]methyl]-4-methoxy-benzamide]
Emax: 551% | EC50: 513 nM

Cc1cc(-c2sc(N3C[C@@H](C)O[C@@H](C)C3)nc2CNC(=O)c2coc(C)n2)cc(C)n1 [Compound 31, N-[[2-[(2R,6S)-2,6-dimethyl-4-morpholinyl]-5-(2,6-dimethyl-4-pyridinyl)-4-thiazolyl]methyl]-2-methyl-4-oxazolecarboxamide]
Emax: 495%

Cc1cc(-c2sc(N3C[C@@H](C)O[C@@H](C)C3)nc2CNC(=O)c2ccc(F)c(C(F)(F)F)c2)cc(C)n1 [Compound 33, N-[[2-[(2R,6S)-2,6-dimethyl-4-morpholinyl]-5-(2,6-dimethyl-4-pyridinyl)-4-thiazolyl]methyl]-4-fluoro-3-(trifluoromethyl)-benzamide]
Emax: 519% | EC50: 275 nM

Cc1cc(-c2sc(N3C[C@@H](C)O[C@@H](C)C3)nc2CNC(=O)C2(C)CC2)cc(C)n1 [Compound 34, N-[[2-[(2R,6S)-2,6-dimethyl-4-morpholinyl]-5-(2,6-dimethyl-4-pyridinyl)-4-thiazolyl]methyl]-1-methyl-cyclopropanecarboxamide]
Emax: 237%

Cc1cc(-c2sc(N3C[C@@H](C)O[C@@H](C)C3)nc2CNC(=O)C(C)(C)C)cc(C)n1 [Compound 47, N-[[2-[(2R,6S)-2,6-dimethyl-4-morpholinyl]-5-(2,6-dimethyl-4-pyridinyl)-4-thiazolyl]methyl]-2,2-dimethyl-propanamide]
Emax: 247%

Cc1cc(-c2sc(N3C[C@@H](C)O[C@@H](C)C3)nc2CNC(=O)CCC(C)C)cc(C)n1 [Compound 51, N-[[2-[(2R,6S)-2,6-dimethyl-4-morpholinyl]-5-(2,6-dimethyl-4-pyridinyl)-4-thiazolyl]methyl]-4-methyl-pentanamide]
Emax: 960% | EC50: 60.3 nM

Cc1cc(-c2sc(N3C[C@@H](C)O[C@@H](C)C3)nc2CNC(=O)[C@@H]2CCCN2C)cc(C)n1 [Compound 52, (2S)-N-[[2-[(2R,6S)-2,6-dimethyl-4-morpholinyl]-5-(2,6-dimethyl-4-pyridinyl)-4-thiazolyl]methyl]-1-methyl-2-pyrrolidinecarboxamide]
Emax: 582% | EC50: 6170 nM

COCCC(=O)NCc1nc(N2C[C@@H](C)O[C@@H](C)C2)sc1-c1cc(C)nc(C)c1 [Compound 53, N-[[2-[(2R,6S)-2,6-dimethyl-4-morpholinyl]-5-(2,6-dimethyl-4-pyridinyl)-4-thiazolyl]methyl]-3-methoxy-propanamide]
EC50: 2820 nM

Cc1cc(-c2sc(N3C[C@@H](C)O[C@@H](C)C3)nc2CNC(=O)c2cc(C(C)(C)C)nn2C)cc(C)n1 [Compound 54, 3-(1,1-dimethylethyl)-N-[[2-[(2R,6S)-2,6-dimethyl-4-morpholinyl]-5-(2,6-dimethyl-4-pyridinyl)-4-thiazolyl]methyl]-1-methyl-1H-pyrazole-5-carboxamide]
EC50: 646 nM

CC(=O)NCc1nc(N2C[C@@H](C)O[C@@H](C)C2)sc1-c1cc(C)nc(C)c1 [Compound 60, N-[[2-[(2R,6S)-2,6-dimethyl-4-morpholinyl]-5-(2,6-dimethyl-4-pyridinyl)-4-thiazolyl]methyl]-acetamide]
Emax: 495%

Cc1cc(-c2sc(N3CCOCC3)nc2CNC(=O)c2conc2C)cc(C)n1 [Compound 62, N-[[5-(2,6-dimethyl-4-pyridinyl)-2-(4-morpholinyl)-4-thiazolyl]methyl]-3-methyl-4-isoxazolecarboxamide]
Emax: 633% | EC50: 4270 nM

Cc1cc(-c2sc(N3C[C@@H](C)O[C@@H](C)C3)nc2CNC(=O)c2conc2C)ccn1 [Compound 86, N-[[2-[(2R,6S)-2,6-dimethyl-4-morpholinyl]-5-(2-methyl-4-pyridinyl)-4-thiazolyl]methyl]-3-methyl-4-isoxazolecarboxamide]
Emax: 479% | EC50: 759 nM

Cc1cc(-c2sc(N3C[C@@H](C)O[C@@H](C)C3)nc2CNC(=O)c2cccc(Cl)c2)ccn1 [Compound 91, 3-chloro-N-[[2-[(2R,6S)-2,6-dimethyl-4-morpholinyl]-5-(2-methyl-4-pyridinyl)-4-thiazolyl]methyl]-benzamide]
Emax: 445% | EC50: 407 nM

Cc1cc(-c2sc(N3C[C@@H](C)O[C@@H](C)C3)nc2CNC(=O)c2ccccc2F)ccn1 [Compound 92, N-[[2-[(2R,6S)-2,6-dimethyl-4-morpholinyl]-5-(2-methyl-4-pyridinyl)-4-thiazolyl]methyl]-2-fluoro-benzamide]
Emax: 523% | EC50: 661 nM

Cc1cc(-c2sc(N3C[C@@H](C)O[C@@H](C)C3)nc2CNC(=O)C2CCC2)c(C)cn1 [Compound 95, N-[[2-[(2R,6S)-2,6-dimethyl-4-morpholinyl]-5-(2,5-dimethyl-4-pyridinyl)-4-thiazolyl]methyl]-cyclobutanecarboxamide]
Emax: 299% | EC50: 2090 nM

Cc1nocc1C(=O)NCc1nc(N2C[C@@H](C)O[C@@H](C)C2)sc1-c1ccncc1 [Compound 101, N-[[2-[(2R,6S)-2,6-dimethyl-4-morpholinyl]-5-(4-pyridinyl)-4-thiazolyl]methyl]-3-methyl-4-isoxazolecarboxamide]
EC50: 6610 nM

Cc1cc(-c2sc(N3C[C@@H](C)O[C@@H](C)C3)nc2CNC(=O)CC2CC2)cc(C2CC2)n1 [Compound 104, N-[[5-(2-cyclopropy1-6-methyl-4-pyridinyl)-2-[(2R,6S)-2,6-dimethyl-4-morpholinyl]-4-thiazolyl]methyl]-cyclopropaneacetamide]
Emax: 923% | EC50: 61.7 nM

Cc1cc(-c2sc(N3C[C@@H](C)O[C@@H](C)C3)nc2CNC(=O)c2cc(C)on2)cc(C2CC2)n1 [Compound 105, N-[[5-(2-cyclopropy1-6-methyl-4-pyridinyl)-2-[(2R,6S)-2,6-dimethyl-4-morpholinyl]-4-thiazolyl]methyl]-5-methyl-3-isoxazolecarboxamide]
Emax: 895% | EC50: 288 nM

Cc1cc(-c2sc(N3C[C@@H](C)O[C@@H](C)C3)nc2CNC(=O)c2conc2C)cc(C2CC2)n1 [Compound 106, N-[[5-(2-cyclopropy1-6-methyl-4-pyridinyl)-2-[(2R,6S)-2,6-dimethyl-4-morpholinyl]-4-thiazolyl]methyl]-3-methyl-4-isoxazolecarboxamide]
Emax: 650% | EC50: 81.3 nM

Cc1cc(-c2sc(N3C[C@@H](C)O[C@@H](C)C3)nc2CNC(=O)c2ccc(F)cc2C)cc(C2CC2)n1 [Compound 107, N-[[5-(2-cyclopropy1-6-methyl-4-pyridinyl)-2-[(2R,6S)-2,6-dimethyl-4-morpholinyl]-4-thiazolyl]methyl]-4-fluoro-2-methyl-benzamide]
Emax: 780% | EC50: 26.9 nM

Cc1cc(-c2sc(N3C[C@@H](C)O[C@@H](C)C3)nc2CNC(=O)C(C)C)cc(C2CC2)n1 [Compound 108, N-[[5-(2-cyclopropy1-6-methyl-4-pyridinyl)-2-[(2R,6S)-2,6-dimethyl-4-morpholinyl]-4-thiazolyl]methyl]-2-methyl-propanamide]
Emax: 764% | EC50: 72.4 nM

Cc1cc(-c2sc(N3C[C@@H](C)O[C@@H](C)C3)nc2CNC(=O)C2CC2)cc(C2CC2)n1 [Compound 109, N-[[5-(2-cyclopropy1-6-methyl-4-pyridinyl)-2-[(2R,6S)-2,6-dimethyl-4-morpholinyl]-4-thiazolyl]methyl]-cyclopropanecarboxamide]
Emax: 826% | EC50: 224 nM

Cc1cc(-c2sc(N3C[C@@H](C)O[C@@H](C)C3)nc2CNC(=O)CC(C)C)cc(C2CC2)n1 [Compound 110, N-[[5-(2-cyclopropy1-6-methyl-4-pyridinyl)-2-[(2R,6S)-2,6-dimethyl-4-morpholinyl]-4-thiazolyl]methyl]-3-methyl-butanamide]
Emax: 957% | EC50: 12.3 nM

— patent US8637510B2, “Morpholinothiazoles as alpha 7 positive allosteric modulators” (Janssen Pharmaceutica NV, priority 2009, dated 2014)
